From the NIST ThermoML archive (doi:10.1016/j.jct.2013.05.030)
Numbers after ± are expanded uncertainties.

Tests used:
[1] = activity coefficient (dimensionless); of the first substance listed, at infinite dilution; xn = mol fraction of the nth substance listed; conditions: 101 kPa, Liquid, Chromatography, x1 = 0
[2] = 293.15 K; 101.33 kPa; Liquid; Vibrating tube method

C#CCCCCCCC [1-nonyne] + CCCCCCCCCCCCCC[P+](CCCCCC)(CCCCCC)CCCCCC.O=S(=O)([N-]S(=O)(=O)C(F)(F)F)C(F)(F)F
activity coefficient ([1]; 313.15 K): 0.853 ± 0.063
activity coefficient ([1]; 333.15 K): 0.915 ± 0.067
activity coefficient ([1]; 353.15 K): 0.956 ± 0.069
activity coefficient ([1]; 373.15 K): 0.979 ± 0.071

C#CCCCC [1-hexyne] + CCCCCCCCCCCCCC[P+](CCCCCC)(CCCCCC)CCCCCC.O=S(=O)([N-]S(=O)(=O)C(F)(F)F)C(F)(F)F
activity coefficient ([1]; 313.15 K): 0.693 ± 0.053
activity coefficient ([1]; 333.15 K): 0.709 ± 0.054
activity coefficient ([1]; 353.15 K): 0.72 ± 0.054
activity coefficient ([1]; 373.15 K): 0.732 ± 0.055

C1CCCCCC1 [cycloheptane] + CCCCCCCCCCCCCC[P+](CCCCCC)(CCCCCC)CCCCCC.O=S(=O)([N-]S(=O)(=O)C(F)(F)F)C(F)(F)F
activity coefficient ([1]; 313.15 K): 0.87 ± 0.064
activity coefficient ([1]; 333.15 K): 0.881 ± 0.065
activity coefficient ([1]; 353.15 K): 0.891 ± 0.065
activity coefficient ([1]; 373.15 K): 0.905 ± 0.066

C#CCCCCC [1-heptyne] + CCCCCCCCCCCCCC[P+](CCCCCC)(CCCCCC)CCCCCC.O=S(=O)([N-]S(=O)(=O)C(F)(F)F)C(F)(F)F
activity coefficient ([1]; 313.15 K): 0.726 ± 0.055
activity coefficient ([1]; 333.15 K): 0.749 ± 0.056
activity coefficient ([1]; 353.15 K): 0.762 ± 0.057
activity coefficient ([1]; 373.15 K): 0.782 ± 0.058

CCCCCC [hexane] + CCCCCCCCCCCCCC[P+](CCCCCC)(CCCCCC)CCCCCC.O=S(=O)([N-]S(=O)(=O)C(F)(F)F)C(F)(F)F
activity coefficient ([1]; 313.15 K): 1.1 ± 0.08
activity coefficient ([1]; 333.15 K): 1.11 ± 0.081
activity coefficient ([1]; 353.15 K): 1.12 ± 0.082
activity coefficient ([1]; 373.15 K): 1.13 ± 0.083

CCCCC [pentane] + CCCCCCCCCCCCCC[P+](CCCCCC)(CCCCCC)CCCCCC.O=S(=O)([N-]S(=O)(=O)C(F)(F)F)C(F)(F)F
activity coefficient ([1]; 313.15 K): 0.96 ± 0.07
activity coefficient ([1]; 333.15 K): 0.978 ± 0.071
activity coefficient ([1]; 353.15 K): 0.99 ± 0.072
activity coefficient ([1]; 373.15 K): 1 ± 0.072

c1ccccc1 [benzene] + CCCCCCCCCCCCCC[P+](CCCCCC)(CCCCCC)CCCCCC.O=S(=O)([N-]S(=O)(=O)C(F)(F)F)C(F)(F)F
activity coefficient ([1]; 313.15 K): 0.391 ± 0.036
activity coefficient ([1]; 333.15 K): 0.405 ± 0.037
activity coefficient ([1]; 353.15 K): 0.417 ± 0.038
activity coefficient ([1]; 373.15 K): 0.437 ± 0.039

CO [methanol] + CCCCCCCCCCCCCC[P+](CCCCCC)(CCCCCC)CCCCCC.O=S(=O)([N-]S(=O)(=O)C(F)(F)F)C(F)(F)F
activity coefficient ([1]; 313.15 K): 1.08 ± 0.079
activity coefficient ([1]; 333.15 K): 1.03 ± 0.074
activity coefficient ([1]; 353.15 K): 0.922 ± 0.067
activity coefficient ([1]; 373.15 K): 0.863 ± 0.063

Cc1ccccc1 [toluene] + CCCCCCCCCCCCCC[P+](CCCCCC)(CCCCCC)CCCCCC.O=S(=O)([N-]S(=O)(=O)C(F)(F)F)C(F)(F)F
activity coefficient ([1]; 313.15 K): 0.452 ± 0.039
activity coefficient ([1]; 333.15 K): 0.472 ± 0.04
activity coefficient ([1]; 353.15 K): 0.486 ± 0.041
activity coefficient ([1]; 373.15 K): 0.51 ± 0.042

C=CCCC [1-pentene] + CCCCCCCCCCCCCC[P+](CCCCCC)(CCCCCC)CCCCCC.O=S(=O)([N-]S(=O)(=O)C(F)(F)F)C(F)(F)F
activity coefficient ([1]; 313.15 K): 0.806 ± 0.06
activity coefficient ([1]; 333.15 K): 0.824 ± 0.061
activity coefficient ([1]; 353.15 K): 0.842 ± 0.062
activity coefficient ([1]; 373.15 K): 0.85 ± 0.063

C=CCCCCC [1-heptene] + CCCCCCCCCCCCCC[P+](CCCCCC)(CCCCCC)CCCCCC.O=S(=O)([N-]S(=O)(=O)C(F)(F)F)C(F)(F)F
activity coefficient ([1]; 313.15 K): 1.03 ± 0.075
activity coefficient ([1]; 333.15 K): 1.06 ± 0.077
activity coefficient ([1]; 353.15 K): 1.1 ± 0.08
activity coefficient ([1]; 373.15 K): 1.12 ± 0.082

CCCCCCCCCCCCCC[P+](CCCCCC)(CCCCCC)CCCCCC.O=S(=O)([N-]S(=O)(=O)C(F)(F)F)C(F)(F)F
mass density [2]: 1068.87 ± 8.6 kg/m3

CC(C)=O [acetone] + CCCCCCCCCCCCCC[P+](CCCCCC)(CCCCCC)CCCCCC.O=S(=O)([N-]S(=O)(=O)C(F)(F)F)C(F)(F)F
activity coefficient ([1]; 313.15 K): 0.297 ± 0.033
activity coefficient ([1]; 333.15 K): 0.327 ± 0.034
activity coefficient ([1]; 353.15 K): 0.332 ± 0.034
activity coefficient ([1]; 373.15 K): 0.334 ± 0.034

C1CCCCCCC1 [cyclooctane] + CCCCCCCCCCCCCC[P+](CCCCCC)(CCCCCC)CCCCCC.O=S(=O)([N-]S(=O)(=O)C(F)(F)F)C(F)(F)F
activity coefficient ([1]; 313.15 K): 0.963 ± 0.07
activity coefficient ([1]; 333.15 K): 0.998 ± 0.072
activity coefficient ([1]; 353.15 K): 1.07 ± 0.078
activity coefficient ([1]; 373.15 K): 1.12 ± 0.082

C=CCCCC [hex-1-ene] + CCCCCCCCCCCCCC[P+](CCCCCC)(CCCCCC)CCCCCC.O=S(=O)([N-]S(=O)(=O)C(F)(F)F)C(F)(F)F
activity coefficient ([1]; 313.15 K): 0.907 ± 0.066
activity coefficient ([1]; 333.15 K): 0.921 ± 0.067
activity coefficient ([1]; 353.15 K): 0.93 ± 0.068
activity coefficient ([1]; 373.15 K): 0.942 ± 0.068

CCC(C)=O [butanone] + CCCCCCCCCCCCCC[P+](CCCCCC)(CCCCCC)CCCCCC.O=S(=O)([N-]S(=O)(=O)C(F)(F)F)C(F)(F)F
activity coefficient ([1]; 313.15 K): 0.321 ± 0.034
activity coefficient ([1]; 333.15 K): 0.309 ± 0.033
activity coefficient ([1]; 353.15 K): 0.324 ± 0.034
activity coefficient ([1]; 373.15 K): 0.331 ± 0.034

CCCCCCCC [octane] + CCCCCCCCCCCCCC[P+](CCCCCC)(CCCCCC)CCCCCC.O=S(=O)([N-]S(=O)(=O)C(F)(F)F)C(F)(F)F
activity coefficient ([1]; 313.15 K): 1.4 ± 0.1
activity coefficient ([1]; 333.15 K): 1.44 ± 0.11
activity coefficient ([1]; 353.15 K): 1.46 ± 0.11
activity coefficient ([1]; 373.15 K): 1.49 ± 0.11

C1CCCC1 [cyclopentane] + CCCCCCCCCCCCCC[P+](CCCCCC)(CCCCCC)CCCCCC.O=S(=O)([N-]S(=O)(=O)C(F)(F)F)C(F)(F)F
activity coefficient ([1]; 313.15 K): 0.687 ± 0.052
activity coefficient ([1]; 333.15 K): 0.698 ± 0.053
activity coefficient ([1]; 353.15 K): 0.713 ± 0.054
activity coefficient ([1]; 373.15 K): 0.721 ± 0.055

CCCO [propan-1-ol] + CCCCCCCCCCCCCC[P+](CCCCCC)(CCCCCC)CCCCCC.O=S(=O)([N-]S(=O)(=O)C(F)(F)F)C(F)(F)F
activity coefficient ([1]; 313.15 K): 1.28 ± 0.095
activity coefficient ([1]; 333.15 K): 1.15 ± 0.084
activity coefficient ([1]; 353.15 K): 1.07 ± 0.078
activity coefficient ([1]; 373.15 K): 0.953 ± 0.069

C1CCCCC1 [cyclohexane] + CCCCCCCCCCCCCC[P+](CCCCCC)(CCCCCC)CCCCCC.O=S(=O)([N-]S(=O)(=O)C(F)(F)F)C(F)(F)F
activity coefficient ([1]; 313.15 K): 0.795 ± 0.059
activity coefficient ([1]; 333.15 K): 0.797 ± 0.059
activity coefficient ([1]; 353.15 K): 0.798 ± 0.059
activity coefficient ([1]; 373.15 K): 0.8 ± 0.059

C#CCCC [1-pentyne] + CCCCCCCCCCCCCC[P+](CCCCCC)(CCCCCC)CCCCCC.O=S(=O)([N-]S(=O)(=O)C(F)(F)F)C(F)(F)F
activity coefficient ([1]; 313.15 K): 0.613 ± 0.048
activity coefficient ([1]; 333.15 K): 0.636 ± 0.049
activity coefficient ([1]; 353.15 K): 0.663 ± 0.051
activity coefficient ([1]; 373.15 K): 0.699 ± 0.053

CCCCCCCCC [nonane] + CCCCCCCCCCCCCC[P+](CCCCCC)(CCCCCC)CCCCCC.O=S(=O)([N-]S(=O)(=O)C(F)(F)F)C(F)(F)F
activity coefficient ([1]; 313.15 K): 1.6 ± 0.12
activity coefficient ([1]; 333.15 K): 1.67 ± 0.13
activity coefficient ([1]; 353.15 K): 1.77 ± 0.14
activity coefficient ([1]; 373.15 K): 1.87 ± 0.14

C#CCCCCCC [1-octyne] + CCCCCCCCCCCCCC[P+](CCCCCC)(CCCCCC)CCCCCC.O=S(=O)([N-]S(=O)(=O)C(F)(F)F)C(F)(F)F
activity coefficient ([1]; 313.15 K): 0.836 ± 0.062
activity coefficient ([1]; 333.15 K): 0.865 ± 0.063
activity coefficient ([1]; 353.15 K): 0.886 ± 0.065
activity coefficient ([1]; 373.15 K): 0.899 ± 0.066
